Among the test systems are HOP-62 NSCLC; K-562 leukemia; MALME-3M melanoma; NCI-H226 lung; NCI-H23 lung; NCI-H460 lung; OVCAR-5 ovarian; SNB-75 CNS; U251 CNS; UACC-62 melanoma.
Holding throughout (assay): NCI-60 cell line screen, 48 h

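A five-concentration, 48-hour dose response in 96-well plates underlies each endpoint, interpolated linearly between surrounding concentrations. Here, GI50 denotes the concentration required for 50% inhibition of growth. TGI is the concentration that stops growth completely.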 Some results are limits rather than exact numbers.

As for `COC1C=C(Nc2cccc(Cl)c2)C(=O)C1` (stereo not drawn), the TGI in the test on HOP-62 NSCLC, in the test with K-562 leukemia, in the test on MALME-3M melanoma, in the test with NCI-H226 lung, with NCI-H23 lung and with NCI-H460 lung was greater than 100 µM each time. Moreover, the TGI in the test with OVCAR-5 ovarian, in the test with SNB-75 CNS, in the test on U251 CNS and with UACC-62 melanoma was greater than 100 µM throughout.
Take `O=C1/C(=C\c2ccc(Cl)cc2)CN(C(=S)Nc2ccccc2)C/C1=C\c1ccc(Cl)cc1`: the GI50 is 0.269 µM with HOP-62 NSCLC; 0.356 µM in the test on K-562 leukemia; 2.22 µM with MALME-3M melanoma; 1.64 µM with NCI-H226 lung; 1.3 µM in the test with NCI-H23 lung; 0.471 µM with NCI-H460 lung. Also, the GI50 is 1.47 µM in the test on OVCAR-5 ovarian, 1.25 µM in the test with SNB-75 CNS, 0.212 µM in the test with U251 CNS and 1.2 µM in the test with UACC-62 melanoma. The TGI stood at 0.696 µM with HOP-62 NSCLC; 7.67 µM in the test with K-562 leukemia; 4.86 µM in the test with MALME-3M melanoma; 4.58 µM with NCI-H226 lung; 3.92 µM in the test with NCI-H23 lung; 2.15 µM with NCI-H460 lung. Also, the TGI was 3.49 µM in the test with OVCAR-5 ovarian, 3.82 µM in the test with SNB-75 CNS, 0.484 µM in the test with U251 CNS and 2.92 µM in the test on UACC-62 melanoma.
For `Cc1cc(NC(=O)C2c3ccccc3C(=O)N(CC(C)C)C2c2cccs2)no1` (stereo not drawn), the GI50 is greater than 100 µM in the test with HOP-62 NSCLC; 50.9 µM with K-562 leukemia; greater than 100 µM in the test with MALME-3M melanoma; greater than 100 µM in the test with NCI-H226 lung; greater than 100 µM in the test on NCI-H23 lung; greater than 100 µM in the test with NCI-H460 lung. In addition, the GI50 is greater than 100 µM in the test on OVCAR-5 ovarian, 10.5 µM in the test with SNB-75 CNS, 84.2 µM with U251 CNS and 86 µM with UACC-62 melanoma. Moreover, the TGI in the test with HOP-62 NSCLC, in the test with K-562 leukemia, in the test with MALME-3M melanoma, with NCI-H226 lung, in the test with NCI-H23 lung and in the test with NCI-H460 lung was greater than 100 µM each time. Moreover, the TGI in the test on OVCAR-5 ovarian, in the test with SNB-75 CNS, in the test with U251 CNS and in the test on UACC-62 melanoma was greater than 100 µM throughout.
Turning to `CC(=O)c1ccc(Nc2cc(-n3ccnc3)nc3ccccc23)cc1`, the GI50 was 4.26 µM in the test with HOP-62 NSCLC; 11.4 µM in the test with K-562 leukemia; 15.4 µM in the test with MALME-3M melanoma; 24.4 µM in the test with NCI-H226 lung; 49.6 µM with NCI-H23 lung; 34.2 µM in the test on NCI-H460 lung. For the same molecule, the GI50 in the test on OVCAR-5 ovarian was greater than 100 µM; in the test with SNB-75 CNS it was 38.2 µM; in the test with U251 CNS, 32.6 µM; in the test with UACC-62 melanoma, 19.2 µM. The TGI with HOP-62 NSCLC is 29.4 µM; with K-562 leukemia, 81.5 µM; in the test with MALME-3M melanoma, 56.5 µM; in the test on NCI-H226 lung, 92.1 µM; with NCI-H23 lung, greater than 100 µM; with NCI-H460 lung, greater than 100 µM. Further, the TGI in the test with OVCAR-5 ovarian was greater than 100 µM; in the test on SNB-75 CNS, greater than 100 µM; in the test on U251 CNS, greater than 100 µM; in the test on UACC-62 melanoma it was 92.8 µM.
`CCOC(=O)c1cnc(SCc2ccc(Cl)c(Cl)c2)nc1N1CC1`: the GI50 is 2.95 µM with HOP-62 NSCLC; 1.15 µM in the test on K-562 leukemia; 3.33 µM in the test on MALME-3M melanoma; 5.01 µM with NCI-H226 lung; 3.62 µM in the test with NCI-H23 lung; 2.88 µM in the test with NCI-H460 lung. The GI50 in the test with OVCAR-5 ovarian is 4.67 µM; in the test with SNB-75 CNS, 2.05 µM; in the test on U251 CNS, 3.71 µM; in the test with UACC-62 melanoma, 4.23 µM. In addition, the TGI in the test on HOP-62 NSCLC worked out at 13.6 µM; with K-562 leukemia, 14.8 µM; in the test on MALME-3M melanoma, 14.8 µM; in the test on NCI-H226 lung, 18.9 µM; with NCI-H23 lung it was 14.5 µM; in the test with NCI-H460 lung, 7.66 µM. Further, the TGI with OVCAR-5 ovarian came out at 19.4 µM; in the test on SNB-75 CNS it was 6.09 µM; with U251 CNS, 18.2 µM; in the test on UACC-62 melanoma, 19.5 µM.
In the case of `COc1ccc(N(C)c2nc(C)nc3ccccc23)cc1`, the GI50 in the test on HOP-62 NSCLC, in the test with K-562 leukemia, with NCI-H226 lung, in the test with NCI-H23 lung, with NCI-H460 lung and in the test on OVCAR-5 ovarian was less than 0.01 µM in each case. For the same molecule, the GI50 in the test with SNB-75 CNS, with U251 CNS and in the test with UACC-62 melanoma was less than 0.01 µM throughout. Also, the TGI in the test with HOP-62 NSCLC was greater than 100 µM; in the test on K-562 leukemia, greater than 100 µM; in the test with MALME-3M melanoma, 39.5 µM; in the test on NCI-H226 lung, 0.534 µM; in the test on NCI-H23 lung it was 20.8 µM; in the test with OVCAR-5 ovarian, greater than 100 µM. In addition, the TGI in the test with SNB-75 CNS was greater than 100 µM; in the test on U251 CNS it was greater than 100 µM; in the test on UACC-62 melanoma it was greater than 49.6 µM.
As to `C[C@H]1[C@H](OC(=O)CCC(=O)O)O[C@@H]2O[C@]3(C)CC[C@H]4[C@H](C)CC[C@@H]1[C@@]24OO3`, the GI50 was 3.68 µM in the test on HOP-62 NSCLC; 0.443 µM in the test on K-562 leukemia; 0.878 µM with MALME-3M melanoma; 0.956 µM in the test on NCI-H226 lung; 0.383 µM in the test on NCI-H23 lung; 1.24 µM in the test on NCI-H460 lung. Moreover, the GI50 with OVCAR-5 ovarian was 0.669 µM; with SNB-75 CNS, 2.34 µM; in the test on U251 CNS, 0.503 µM; in the test with UACC-62 melanoma, 0.474 µM. Besides, the TGI came out at 27.3 µM in the test with HOP-62 NSCLC; 10 µM in the test on K-562 leukemia; 31.6 µM with MALME-3M melanoma; 34.6 µM with NCI-H226 lung; 10.7 µM in the test with NCI-H23 lung; 41.6 µM in the test on NCI-H460 lung. For the same molecule, the TGI with OVCAR-5 ovarian is 20.5 µM; with SNB-75 CNS it was 17.6 µM; with U251 CNS, 18.5 µM; in the test with UACC-62 melanoma it was 27.4 µM.
With `CC1(C)CC(=O)C2=C(C1)NC(SSC1=C(C#N)C(c3ccccc3)C3=C(CC(C)(C)CC3=O)N1)=C(C#N)C2c1ccccc1` (stereo not drawn), the GI50 in the test on HOP-62 NSCLC was 72.3 µg/mL; in the test on K-562 leukemia it was 42.3 µg/mL; in the test on MALME-3M melanoma, 27.3 µg/mL; in the test with NCI-H226 lung, 32 µg/mL; in the test with NCI-H23 lung, 27.7 µg/mL; in the test with NCI-H460 lung, 27.7 µg/mL. Further, the GI50 is 27.8 µg/mL with OVCAR-5 ovarian, 29 µg/mL in the test with SNB-75 CNS, 33.2 µg/mL in the test with U251 CNS and 26.3 µg/mL with UACC-62 melanoma. In addition, the TGI in the test with HOP-62 NSCLC is greater than 150 µg/mL; in the test with K-562 leukemia, 145 µg/mL; with MALME-3M melanoma it was 48.6 µg/mL; in the test with NCI-H226 lung, 70.8 µg/mL; in the test with NCI-H23 lung, 50.9 µg/mL; in the test on NCI-H460 lung it was 50.7 µg/mL. For the same molecule, the TGI was 50.9 µg/mL in the test on OVCAR-5 ovarian, 53.3 µg/mL in the test with SNB-75 CNS, 64.2 µg/mL in the test with U251 CNS and 47.6 µg/mL in the test with UACC-62 melanoma.

Values taken from PubChem BioAssay (NCI).
